Measurements published in publication PMC5218480 (PLoS ONE, 2017).

Test system: MV-4-11 cells
Assay: Gene expression microarray analysis (Affymetrix PrimeView) and GSEA
Type: cell-based, human
Set-up: RFU PODN (11730768_x_at) / Fold change /veh PODN (11730768_x_at) / RFU LINC00158 (11744669_a_at) / Fold change /veh LINC00158 (11744669_a_at) / RFU DUSP10 (11751237_a_at) / Fold change /veh DUSP10 (11751237_a_at) / RFU ID3 (11757404_x_at) / Fold change /veh ID3 (11757404_x_at) / RFU PLEKHG5 (11737974_s_at) / Fold change /veh PLEKHG5 (11737974_s_at) / RFU LRRC4B (11730491_at) / Fold change /veh LRRC4B (11730491_at) / RFU GIMAP4 (11747438_a_at) / Fold change /veh GIMAP4 (11747438_a_at) / RFU KRT8 (11758183_x_at) / Fold change /veh KRT8 (11758183_x_at) / RFU CNN1 (11734310_a_at) / Fold change /veh CNN1 (11734310_a_at) / RFU VPS37D (11726825_at) / Fold change /veh VPS37D (11726825_at) / RFU C10orf10 (11716522_x_at) / Fold change /veh C10orf10 (11716522_x_at) / RFU KIR2DL2 /// KIR2DL4 /// KIR2DL5A /// KIR2DL5B /// KIR2DS1 /// KIR2DS2 /// KIR2DS3 /// KIR2DS4 /// KIR3DL3 /// KIR3DL3 /// KIR3DS1 (11738374_at) / Fold change /veh KIR2DL2 /// KIR2DL4 /// KIR2DL5A /// KIR2DL5B /// KIR2DS1 /// KIR2DS2 /// KIR2DS3 /// KIR2DS4 /// KIR3DL3 /// KIR3DL3 /// KIR3DS1 (11738374_at) / RFU C1QL1 (11718748_at) / Fold change /veh C1QL1 (11718748_at) / RFU TMPRSS4 (11747572_a_at) / Fold change /veh TMPRSS4 (11747572_a_at) / RFU HAMP (11756126_x_at) / Fold change /veh HAMP (11756126_x_at) / RFU RNFT2 (11725882_a_at) / Fold change /veh RNFT2 (11725882_a_at) / RFU NR4A2 (11747474_a_at) / Fold change /veh NR4A2 (11747474_a_at) / RFU ABCC12 (11746883_a_at) / Fold change /veh ABCC12 (11746883_a_at) / RFU TMEM136 (11760407_x_at) / Fold change /veh TMEM136 (11760407_x_at) / RFU CLDN22 /// WWC2 (11732394_at) / Fold change /veh CLDN22 /// WWC2 (11732394_at) / RFU HLA-DPB1 (11760878_x_at) / Fold change /veh HLA-DPB1 (11760878_x_at) / RFU SPINT1 (11716480_a_at) / Fold change /veh SPINT1 (11716480_a_at) / RFU GAP43 (11754022_s_at) / Fold change /veh GAP43 (11754022_s_at) / RFU A4GNT (11735810_at) / Fold change /veh A4GNT (11735810_at) / RFU PRB3 (11715151_x_at) / Fold change /veh PRB3 (11715151_x_at) / RFU TUBB4B (11761932_at) / Fold change /veh TUBB4B (11761932_at) / RFU CAPN14 (11732068_a_at) / Fold change /veh CAPN14 (11732068_a_at) / RFU TMCC2 (11721928_a_at) / Fold change /veh TMCC2 (11721928_a_at) / RFU IRGQ (11745062_a_at) / Fold change /veh IRGQ (11745062_a_at) / RFU FAM174B (11720279_a_at) / Fold change /veh FAM174B (11720279_a_at) / RFU TMPRSS4 (11748680_a_at) / Fold change /veh TMPRSS4 (11748680_a_at) / RFU FAM212B (11763350_a_at) / Fold change /veh FAM212B (11763350_a_at) / RFU PLEKHG5 (11743358_a_at) / Fold change /veh PLEKHG5 (11743358_a_at) / RFU ZSCAN30 (11745921_a_at) / Fold change /veh ZSCAN30 (11745921_a_at) / RFU CMKLR1 (11741424_a_at) / Fold change /veh CMKLR1 (11741424_a_at) / RFU LOC101060620 /// MAPK8IP1 (11723275_at) / Fold change /veh LOC101060620 /// MAPK8IP1 (11723275_at) / RFU SPTSSB (11747773_x_at) / Fold change /veh SPTSSB (11747773_x_at) / RFU PRSS12 (11739890_at) / Fold change /veh PRSS12 (11739890_at) / RFU BIN1 (11741810_x_at) / Fold change /veh BIN1 (11741810_x_at) / RFU WNT11 (11732464_a_at) / Fold change /veh WNT11 (11732464_a_at) / RFU C10orf10 (11716521_a_at) / Fold change /veh C10orf10 (11716521_a_at) / RFU C5orf56 (11738089_at) / Fold change /veh C5orf56 (11738089_at) / RFU CYB561 (11721691_x_at) / Fold change /veh CYB561 (11721691_x_at) / RFU ANKRD19P (11752326_a_at) / Fold change /veh ANKRD19P (11752326_a_at) / RFU OR2T12 /// OR2T33 /// OR2T8 (11738714_s_at) / Fold change /veh OR2T12 /// OR2T33 /// OR2T8 (11738714_s_at) / RFU VCAN (11748164_a_at) / Fold change /veh VCAN (11748164_a_at) / RFU JSRP1 (11732532_at) / Fold change /veh JSRP1 (11732532_at) / RFU KRTAP10-11 (11738290_x_at) / Fold change /veh KRTAP10-11 (11738290_x_at) / RFU MYO3A (11730013_a_at) / Fold change /veh MYO3A (11730013_a_at) / RFU EBF3 (11725865_a_at) / Fold change /veh EBF3 (11725865_a_at) / RFU CAMK2N1 (11719241_x_at) / Fold change /veh CAMK2N1 (11719241_x_at) / RFU C5orf56 (11738088_a_at) / Fold change /veh C5orf56 (11738088_a_at) / RFU OLFML3 (11715873_a_at) / Fold change /veh OLFML3 (11715873_a_at) / RFU LOC100653217 /// NTM (11731650_a_at) / Fold change /veh LOC100653217 /// NTM (11731650_a_at) / RFU MAPK11 (11762145_a_at) / Fold change /veh MAPK11 (11762145_a_at) / RFU FIZ1 (11724087_x_at) / Fold change /veh FIZ1 (11724087_x_at) / RFU OASL (11726364_x_at) / Fold change /veh OASL (11726364_x_at) / RFU SOX15 (11748057_x_at) / Fold change /veh SOX15 (11748057_x_at) / RFU CD79A (11719716_a_at) / Fold change /veh CD79A (11719716_a_at) / RFU HIST1H1D (11736915_at) / Fold change /veh HIST1H1D (11736915_at) / RFU CASKIN2 (11723855_a_at) / Fold change /veh CASKIN2 (11723855_a_at) / RFU LOC730098 (11760151_x_at) / Fold change /veh LOC730098 (11760151_x_at) / RFU OR4N2 (11742367_at) / Fold change /veh OR4N2 (11742367_at) / RFU PRRT2 (11749266_a_at) / Fold change /veh PRRT2 (11749266_a_at) / RFU SNX32 (11753110_a_at) / Fold change /veh SNX32 (11753110_a_at) / RFU CDHR5 (11726645_a_at) / Fold change /veh CDHR5 (11726645_a_at) / RFU RCAN1 (11760418_a_at) / Fold change /veh RCAN1 (11760418_a_at) / RFU FAM167A (11723789_a_at) / Fold change /veh FAM167A (11723789_a_at) / RFU FAM26E (11764081_at) / Fold change /veh FAM26E (11764081_at) / RFU ISYNA1 (11749810_s_at) / Fold change /veh ISYNA1 (11749810_s_at) / RFU ACY1 (11761880_at) / Fold change /veh ACY1 (11761880_at) / RFU 11764098_at / Fold change /veh 11764098_at / RFU SAMD14 (11745864_x_at) / Fold change /veh SAMD14 (11745864_x_at) / RFU NPB (11741838_a_at) / Fold change /veh NPB (11741838_a_at) / RFU TMPRSS6 (11731388_a_at) / Fold change /veh TMPRSS6 (11731388_a_at) / RFU KRTAP10-2 (11738614_at) / Fold change /veh KRTAP10-2 (11738614_at) / RFU ARHGAP8 /// PRR5-ARHGAP8 (11727945_x_at) / Fold change /veh ARHGAP8 /// PRR5-ARHGAP8 (11727945_x_at) / RFU KRTAP5-7 /// NADSYN1 (11734609_at) / Fold change /veh KRTAP5-7 /// NADSYN1 (11734609_at) / RFU RASL12 (11751679_a_at) / Fold change /veh RASL12 (11751679_a_at) / RFU CDKN2B (11736163_a_at) / Fold change /veh CDKN2B (11736163_a_at) / RFU PRF1 (11729649_at) / Fold change /veh PRF1 (11729649_at) / RFU, ZNF638 /// ZNF638-IT1 / Fold change vs veh, ZNF638 /// ZNF638-IT1 / RFU, PANK3 / Fold change vs veh, PANK3 / RFU, SH3YL1 / Fold change vs veh, SH3YL1 / RFU, ZEB2 / Fold change vs veh, ZEB2 / RFU, NRIP1 / Fold change vs veh, NRIP1 / RFU, PTTG1IP / Fold change vs veh, PTTG1IP / RFU, CAPN2 / Fold change vs veh, CAPN2 / RFU, MED14 / Fold change vs veh, MED14 / RFU, SNORA58 / Fold change vs veh, SNORA58 / RFU, C1orf63 / Fold change vs veh, C1orf63 / RFU, LRRFIP1 / Fold change vs veh, LRRFIP1 / RFU, NDUFAF7 / Fold change vs veh, NDUFAF7 / RFU, SLC12A2 / Fold change vs veh, SLC12A2 / RFU, IBTK / Fold change vs veh, IBTK / RFU, ESF1 / Fold change vs veh, ESF1 / Fold change vs veh, TMEM50B / RFU, TAOK1 / Fold change vs veh, TAOK1 / RFU, ACBD3 / Fold change vs veh, ACBD3 / RFU, TMA16 / Fold change vs veh, TMA16 / RFU, RWDD3 / Fold change vs veh, RWDD3 / RFU, BCAT1 / Fold change vs veh, BCAT1 / RFU, EDEM3 / Fold change vs veh, EDEM3 / RFU, TMEM33 / Fold change vs veh, TMEM33 / RFU, WDR75 / Fold change vs veh, WDR75 / RFU, AHCTF1 / Fold change vs veh, AHCTF1 / RFU, TFRC / Fold change vs veh, TFRC / RFU, ZDHHC17 / Fold change vs veh, ZDHHC17 / RFU, NOM1 / Fold change vs veh, NOM1 / RFU, ARL8B / Fold change vs veh, ARL8B / RFU, ZBTB11 / Fold change vs veh, ZBTB11 / RFU, TAMM41 / Fold change vs veh, TAMM41 / RFU, KIAA1704 /// LOC100996395 / Fold change vs veh, KIAA1704 /// LOC100996395 / RFU, ING1 / Fold change vs veh, ING1 / RFU, TRMT61B / Fold change vs veh, TRMT61B / RFU, FUBP3 / Fold change vs veh, FUBP3 / RFU, TP53 / Fold change vs veh, TP53 / RFU, TNKS2 / Fold change vs veh, TNKS2 / RFU, ZFP14 / Fold change vs veh, ZFP14 / RFU, ACTR2 / Fold change vs veh, ACTR2 / RFU, PPP3R1 / Fold change vs veh, PPP3R1 / RFU, PIK3R1 / Fold change vs veh, PIK3R1 / RFU, HNRNPA1 / Fold change vs veh, HNRNPA1 / RFU, RNF170 / Fold change vs veh, RNF170 / RFU, ZNF28 / Fold change vs veh, ZNF28 / RFU, RNGTT / Fold change vs veh, RNGTT / RFU, OGT / Fold change vs veh, OGT / RFU, BRD1 / Fold change vs veh, BRD1 / RFU, MARS / Fold change vs veh, MARS / RFU, ZNF655 / Fold change vs veh, ZNF655 / RFU, FAHD1 / Fold change vs veh, FAHD1 / RFU, BDP1 / Fold change vs veh, BDP1 / RFU, LRRCC1 / Fold change vs veh, LRRCC1 / RFU, ARID1A / Fold change vs veh, ARID1A / RFU, ZNF146 / Fold change vs veh, ZNF146 / RFU, ZNF330 / Fold change vs veh, ZNF330 / RFU, GPN3 / Fold change vs veh, GPN3 / RFU, C9orf123 / Fold change vs veh, C9orf123 / RFU, N4BP2L2 / Fold change vs veh, N4BP2L2 / RFU, ARFIP1 / Fold change vs veh, ARFIP1 / RFU, FAM179B / Fold change vs veh, FAM179B / RFU, BCL10 / Fold change vs veh, BCL10 / RFU, UHRF1BP1L / Fold change vs veh, UHRF1BP1L / RFU, BET1 / Fold change vs veh, BET1 / RFU, CNOT2 / Fold change vs veh, CNOT2 / RFU, ZNF268 / Fold change vs veh, ZNF268 / Fold change vs veh, ZNF507 / RFU, DGCR2 / Fold change vs veh, DGCR2 / RFU, WDSUB1 / Fold change vs veh, WDSUB1 / Fold change vs veh, HSP90B1 /// MIR3652 / RFU, ADSS / Fold change vs veh, ADSS / RFU, GK / Fold change vs veh, GK / RFU, ZNF148 / Fold change vs veh, ZNF148 / RFU, TAF9 / Fold change vs veh, TAF9 / RFU, SLC1A5 / Fold change vs veh, SLC1A5 / RFU, SLMO2 / Fold change vs veh, SLMO2 / RFU, ABCC4 / Fold change vs veh, ABCC4 / RFU, LOC101060439 /// RAP1B / Fold change vs veh, LOC101060439 /// RAP1B / RFU, RFX7 / Fold change vs veh, RFX7 / RFU, GTPBP10 / Fold change vs veh, GTPBP10 / RFU, CNEP1R1 / Fold change vs veh, CNEP1R1 / RFU, BIVM-ERCC5 /// ERCC5 / Fold change vs veh, BIVM-ERCC5 /// ERCC5 / RFU, ILF3 / Fold change vs veh, ILF3 / RFU 11762660_at / Fold change /veh 11762660_at / RFU VCAN (11757783_s_at) / Fold change /veh VCAN (11757783_s_at) / RFU DDX43 (11728927_at) / Fold change /veh DDX43 (11728927_at) / RFU KRT8 (11758188_x_at) / Fold change /veh KRT8 (11758188_x_at) / RFU NKD1 (11759106_at) / Fold change /veh NKD1 (11759106_at) / RFU SRD5A1 (11742802_a_at) / Fold change /veh SRD5A1 (11742802_a_at) / RFU TPSAB1 /// TPSB2 (11721975_s_at) / Fold change /veh TPSAB1 /// TPSB2 (11721975_s_at) / RFU GSTM3 (11746129_a_at) / Fold change /veh GSTM3 (11746129_a_at) / RFU IL23R (11737362_x_at) / Fold change /veh IL23R (11737362_x_at) / RFU TMEM51 (11727254_a_at) / Fold change /veh TMEM51 (11727254_a_at) / RFU PIWIL2 (11732686_x_at) / Fold change /veh PIWIL2 (11732686_x_at) / RFU ORM1 (11744905_x_at) / Fold change /veh ORM1 (11744905_x_at) / RFU CCDC152 (11743942_at) / Fold change /veh CCDC152 (11743942_at) / RFU ECM1 (11717891_a_at) / Fold change /veh ECM1 (11717891_a_at) / RFU IL23R (11748794_a_at) / Fold change /veh IL23R (11748794_a_at) / RFU TNFAIP8L3 (11732012_x_at) / Fold change /veh TNFAIP8L3 (11732012_x_at) / RFU MBOAT4 (11741988_at) / Fold change /veh MBOAT4 (11741988_at) / RFU 11764193_at / Fold change /veh 11764193_at / RFU TMEM53 (11763286_at) / Fold change /veh TMEM53 (11763286_at) / RFU MAGEB2 (11727129_at) / Fold change /veh MAGEB2 (11727129_at) / RFU TMEM200A (11744735_a_at) / Fold change /veh TMEM200A (11744735_a_at) / RFU CCDC152 (11751479_a_at) / Fold change /veh CCDC152 (11751479_a_at) / RFU FAM211A (11726209_a_at) / Fold change /veh FAM211A (11726209_a_at) / RFU RGS16 (11746705_a_at) / Fold change /veh RGS16 (11746705_a_at) / RFU VCAN (11755009_s_at) / Fold change /veh VCAN (11755009_s_at) / RFU RHOB (11743442_s_at) / Fold change /veh RHOB (11743442_s_at) / RFU RGS16 (11720943_a_at) / Fold change /veh RGS16 (11720943_a_at) / RFU RGS16 (11720944_at) / Fold change /veh RGS16 (11720944_at) / RFU, VPS4B / Fold change vs veh, VPS4B / RFU, CREB1 / Fold change vs veh, CREB1 / RFU, DNAJC13 / Fold change vs veh, DNAJC13 / RFU, GNAQ / Fold change vs veh, GNAQ / RFU, CDK5R1 / Fold change vs veh, CDK5R1 / RFU, ZRANB3 / Fold change vs veh, ZRANB3 / RFU, CUL4A / Fold change vs veh, CUL4A / RFU, CCNY / Fold change vs veh, CCNY / RFU, UFL1 / Fold change vs veh, UFL1 / RFU, COG3 / Fold change vs veh, COG3 / RFU, DIAPH2 / Fold change vs veh, DIAPH2 / RFU, SKA2 / Fold change vs veh, SKA2 / RFU, AFF3 / Fold change vs veh, AFF3 / RFU, LMF1 / Fold change vs veh, LMF1 / RFU, IPO11 / Fold change vs veh, IPO11 / RFU, DFFB / Fold change vs veh, DFFB / RFU, FOXP1 / Fold change vs veh, FOXP1 / RFU, CARD8 / Fold change vs veh, CARD8 / RFU, STRN3 / Fold change vs veh, STRN3 / RFU, ADK / Fold change vs veh, ADK / RFU, RASSF2 / Fold change vs veh, RASSF2 / RFU, WIPF1 / Fold change vs veh, WIPF1 / RFU, LARP1B / Fold change vs veh, LARP1B / RFU, RASA1 / Fold change vs veh, RASA1 / RFU, RB1 / Fold change vs veh, RB1 / RFU, PPFIA1 / Fold change vs veh, PPFIA1 / RFU, MAT2A / Fold change vs veh, MAT2A / RFU, CCT5 / Fold change vs veh, CCT5 / RFU, WDR92 / Fold change vs veh, WDR92 / RFU, CUX1 / Fold change vs veh, CUX1 / RFU, TTC7A / Fold change vs veh, TTC7A / RFU, TMEM135 / Fold change vs veh, TMEM135 / RFU, DEPTOR / Fold change vs veh, DEPTOR / RFU, CPM / Fold change vs veh, CPM / RFU, DNAJB6 / Fold change vs veh, DNAJB6 / RFU, CACNA2D3 / Fold change vs veh, CACNA2D3 / RFU, DTX4 / Fold change vs veh, DTX4 / RFU, TFCP2 / Fold change vs veh, TFCP2 / RFU, GMCL1 /// GMCL1P1 / Fold change vs veh, GMCL1 /// GMCL1P1 / RFU, AEBP2 / Fold change vs veh, AEBP2 / RFU, SNHG1 /// SNORD22 /// SNORD25 /// SNORD26 /// SNORD27 /// SNORD28 /// SNORD29 /// SNORD31 / Fold change vs veh, SNHG1 /// SNORD22 /// SNORD25 /// SNORD26 /// SNORD27 /// SNORD28 /// SNORD29 /// SNORD31 / Fold change (Aza/veh), C12orf56 (ProbeSet 11735607_a_at) / Fold change (ACY-1035/veh), C12orf56 (ProbeSet 11735607_a_at) / Fold change (Aza/veh), FGFR1OP (ProbeSet 11751329_s_at) / Fold change (ACY-1035/veh), FGFR1OP (ProbeSet 11751329_s_at) / Fold change (Aza/veh), VPS36 (ProbeSet 11739960_a_at) / Fold change (ACY-1035/veh), VPS36 (ProbeSet 11739960_a_at) / RFU SYPL1 (11715823_x_at) / Fold change /veh SYPL1 (11715823_x_at) / RFU IGFBP7 (11715501_s_at) / Fold change /veh IGFBP7 (11715501_s_at) / RFU REEP3 (11722064_at) / Fold change /veh REEP3 (11722064_at) / RFU IGLL1 (11728026_x_at) / Fold change /veh IGLL1 (11728026_x_at): dose or concentration left out as unconfirmed
Conditions: MV-4-11 cells, 48 hours

SMILES: Nc1ncn([C@@H]2O[C@H](CO)[C@@H](O)[C@H]2O)c(=O)n1 [azacitidine]
- RFU PLEKHG5 (11737974_s_at): 50.98 RFU
